Measured values published in PMC11861906, “Structural basis for lipid-mediated activation of G protein-coupled receptor GPR55” (Nature Communications, 2025).

Assays:
Assay type in all cases: cell-based
[1] = molecular target: wt GPR55 (Gα13) (Homo sapiens, UniProt Q9Y2T6); test: BRET² G protein dissociation assay, wt GPR55 with Gα13; settings: for ΔBRET² ratio (Mean): GPR55-wt-G13
Description: (§1) To validate the functionality of the GPR55 cryo-EM construct, we conducted bioluminescence resonance energy transfer 2 (BRET²)-based G protein dissociation assays[46],[47] using an engineered heterotrimeric G13 protein. The N-terminal GFP fusion of the receptor was additionally modified with a G67A mutation to disrupt fluorescence properties. We employed human embryonic kidney (HEK) cells overexpressing wt or mutant GPR55 together with Gβ3, Gγ9-GFP, and Gα13 tagged with Renilla luciferase 8 (Rluc8).
(§2) G protein dissociation assays were performed according to the original protocols of the TRUPATH BRET² assay[47],[87] but with subtle modifications as previously described[61],[88],[89]. All reagents and cells were obtained from Thermo Fisher Scientific unless indicated otherwise. The coding sequences for the G protein biosensors[47] (Gα12-Rluc8, Gα13-Rluc8, wt Gβ3, and Gγ9-GFP), the wt GPR55, the construct used for cryo-EM (with GFP bearing a G67A mutation to disrupt fluorescence properties[48] for BRET² assays), GPR55 binding pocket mutants (G152^4.56F, G152^4.56W, N171^ECL2Q, N171^ECL2A, T176^5.33A, R253^6.62A), and the wt TBXA2R were codon-optimized for Homo sapiens, gene-synthesized, and sub-cloned into pcDNA^TM3.1(+) between NheI and HindIII restriction sites by GeneArt (Thermo Fisher Scientific). […] Freshly grown cells were washed with Dulbecco’s Balanced Salt Solution (DPBS, cat. #14200075) and detached using trypsin-ethylenediaminetetraacetic acid (trypsin-EDTA) (cat. #25300-062). Then, the cells were reconstituted to 500,000 cells per mL with fresh medium, and 1,000,000 cells were seeded into each well of a 6-well plate. After 3 h incubation at 37 °C and 5% CO2, adherent cells were transfected with 600 ng DNA (1:1:1:1 ratio of plasmid DNA for GPR55, wt Gβ3, Gγ9-GFP, and Gα12-Rluc8 or Gα13-Rluc8). Plasmid DNA was mixed with 1.5 µL Lipofectamine^TM 2000 (cat. #11668027) in Opti-MEM^TM medium (cat. #31985062) and incubated for 20 min. Then, the mixture was added to each well of the 6-well plate following 24 h incubation at 37 °C and 5% CO2. Transfected cells were washed with DPBS, detached using EDTA (Versene, cat. #15040066), and reconstituted into fresh medium at 500,000 cells mL^−1. From this suspension, 50,000 cells were seeded into each well of a white-bottom 96-well plate (Nunc^TM MicroWell^TM 96 wells, cat. #136101) following overnight incubation at 37 °C and 5% CO2. Then, the adherent cells were washed with assay medium [Hank’s balanced salt solution (HBSS, cat. #14065056) plus 20 mM HEPES pH 7.4 (cat. #15630056)] and finally reconstituted into 50 µL of the same medium. […] Methoxy e-Coelenterazine was used as luciferase substrate (Prolume Purple, NanoLight Technology, cat. #369), reconstituted at 1 mM in methanol and diluted to 37.5 µM with assay buffer (7.5 µM final assay concentration). The assay was started by the addition of 20 µL luciferase substrate to each well of the assay plate using a Multidrop^TM Combi reagent dispenser (Thermo Fisher Scientific), followed by 5 min incubation at room temperature. Then, 30 µL of agonist dilutions or DMSO control was added (final DMSO concentration 1.5%), followed by an additional 5 min incubation at room temperature. BRET² measurements were performed with a PHERAstar® FSX microplate reader (BMG LABTECH) using a BRET² filter (donor emission 370–450 nm, acceptor emission 500–530 nm) at the maximum fluorescence gain of 3600. BRET² ratios were calculated by dividing GFP emission signals from Rluc8 emission counts. Buffer-DMSO controls were subtracted from each data point to calculate ΔBRET² ratios.

[2] = molecular target: GPR55 cryo-EM construct (Gα13) (Homo sapiens, UniProt Q9Y2T6); test: BRET² G protein dissociation assay, GPR55 cryo-EM construct (GFP G67A) with Gα13; settings: for BRET2 response, Mean (plotted, Fig. S4): Cryo-EM-G67A-G13
Description: as §1, §2

[3] = molecular target: GPR55 mutant T176A (Gα13) (Homo sapiens, UniProt Q9Y2T6, T176A); test: BRET² G protein dissociation assay, GPR55 T176A with Gα13
Description: as §1, §2

[4] = molecular target: GPR55 mutant R253A (Gα13) (Homo sapiens, UniProt Q9Y2T6, R253A); test: BRET² G protein dissociation assay, GPR55 R253A with Gα13
Description: as §1, §2

[5] = molecular target: GPR55 mutant N171A (Gα13) (Homo sapiens, UniProt Q9Y2T6, N171A); test: BRET² G protein dissociation assay, GPR55 N171A with Gα13
Description: as §1, §2

ΔBRET² ratio (Mean) ([1]; 3e-10 M): -0.004943
ΔBRET² ratio (Mean) ([1]; 1e-9 M): -0.002883
ΔBRET² ratio (Mean) ([1]; 3e-9 M): -0.008889
ΔBRET² ratio (Mean) ([1]; 1e-8 M): -0.01695
ΔBRET² ratio (Mean) ([1]; 3e-8 M): -0.02473
ΔBRET² ratio (Mean) ([1]; 1e-7 M): -0.03149
ΔBRET² ratio (Mean) ([1]; 3e-7 M): -0.03626
ΔBRET² ratio (Mean) ([1]; 1e-6 M): -0.04111
ΔBRET² ratio (Mean) ([1]; 3e-6 M): -0.04451
ΔBRET² ratio (Mean) ([1]; 1e-5 M): -0.04913
ΔBRET² ratio (Mean) ([1]; 3e-5 M): -0.04899
Emax at 30 µM ([1]; wt GPR55, Gα13, 30 µM ligand, 100% = wt GPR55 plus G13-biosensor at 30 µM ML184, 0% = mock plus G13-biosensor, read-out: Efficacy ± SEM (%)): 100 ± 2%
EC50 ([1]; wt GPR55, Gα13, read-out: EC50 (Gα13 activation)): 44.7 nM
EC50 ([2]; Cryo-EM construct (G67A), Gα13): 18.2 nM
Emax at 30 µM ([2]; Cryo-EM construct (G67A), Gα13, 30 µM ligand, same normalization, read-out: Efficacy ± SEM (%)): 86 ± 2%
BRET2 response, Mean (plotted, Fig. S4) ([2]; concentration 300 pM): 0.0007
BRET2 response, Mean (plotted, Fig. S4) ([2]; concentration 1e-9 M): -0.00467
BRET2 response, Mean (plotted, Fig. S4) ([2]; concentration 3e-9 M): -0.01143
BRET2 response, Mean (plotted, Fig. S4) ([2]; concentration 1e-8 M): -0.02458
BRET2 response, Mean (plotted, Fig. S4) ([2]; concentration 3e-8 M): -0.03698
BRET2 response, Mean (plotted, Fig. S4) ([2]; concentration 1e-7 M): -0.04541
BRET2 response, Mean (plotted, Fig. S4) ([2]; concentration 3e-7 M): -0.05211
BRET2 response, Mean (plotted, Fig. S4) ([2]; concentration 1e-6 M): -0.05461
BRET2 response, Mean (plotted, Fig. S4) ([2]; concentration 3e-6 M): -0.05649
BRET2 response, Mean (plotted, Fig. S4) ([2]; concentration 1e-5 M): -0.05972
BRET2 response, Mean (plotted, Fig. S4) ([2]; concentration 3e-5 M): -0.06146
Mean (plotted) BRET² response, GPR55-T176A-G13 ([3]; Concentration 300 pM): 0.001302
Mean (plotted) BRET² response, GPR55-T176A-G13 ([3]; Concentration 1e-9 M): -0.0007282
Mean (plotted) BRET² response, GPR55-T176A-G13 ([3]; Concentration 3e-9 M): -0.005903
Mean (plotted) BRET² response, GPR55-T176A-G13 ([3]; Concentration 1e-8 M): -0.01189
Mean (plotted) BRET² response, GPR55-T176A-G13 ([3]; Concentration 3e-8 M): -0.02424
Mean (plotted) BRET² response, GPR55-T176A-G13 ([3]; Concentration 1e-7 M): -0.03886
Mean (plotted) BRET² response, GPR55-T176A-G13 ([3]; Concentration 3e-7 M): -0.05218
Mean (plotted) BRET² response, GPR55-T176A-G13 ([3]; Concentration 1e-6 M): -0.06011
Mean (plotted) BRET² response, GPR55-T176A-G13 ([3]; Concentration 3e-6 M): -0.06604
Mean (plotted) BRET² response, GPR55-T176A-G13 ([3]; Concentration 1e-5 M): -0.06889
Mean (plotted) BRET² response, GPR55-T176A-G13 ([3]; Concentration 3e-5 M): -0.07107
EC50 ([3]; GPR55 T176A, Gα13): 77.6 nM
Emax at 30 µM ([3]; GPR55 T176A, Gα13, 30 µM ligand, same normalization, read-out: Efficacy ± SEM (%)): 100 ± 1%
reduction of potency compared to wt GPR55 ([3]; T176A mutant): 2 fold
Mean (plotted) BRET² response, GPR55-R253A-G13 ([4]; Concentration 300 pM): -0.01108
Mean (plotted) BRET² response, GPR55-R253A-G13 ([4]; Concentration 1e-9 M): -0.01039
Mean (plotted) BRET² response, GPR55-R253A-G13 ([4]; Concentration 3e-9 M): -0.0289
Mean (plotted) BRET² response, GPR55-R253A-G13 ([4]; Concentration 1e-8 M): -0.05814
Mean (plotted) BRET² response, GPR55-R253A-G13 ([4]; Concentration 3e-8 M): -0.08149
Mean (plotted) BRET² response, GPR55-R253A-G13 ([4]; Concentration 1e-7 M): -0.0987
Mean (plotted) BRET² response, GPR55-R253A-G13 ([4]; Concentration 3e-7 M): -0.1069
Mean (plotted) BRET² response, GPR55-R253A-G13 ([4]; Concentration 1e-6 M): -0.1131
Mean (plotted) BRET² response, GPR55-R253A-G13 ([4]; Concentration 3e-6 M): -0.1166
Mean (plotted) BRET² response, GPR55-R253A-G13 ([4]; Concentration 1e-5 M): -0.1236
Mean (plotted) BRET² response, GPR55-R253A-G13 ([4]; Concentration 3e-5 M): -0.1287
EC50 ([4]; GPR55 R253A, Gα13): 14.5 nM
increase of potency compared to wt GPR55 ([4]; R253A mutant): slightly increased by a factor of three
Mean (plotted) BRET² response, GPR55-N171A-G13 ([5]; Concentration 300 pM): 0.002752
Mean (plotted) BRET² response, GPR55-N171A-G13 ([5]; Concentration 1e-9 M): 0.003846
Mean (plotted) BRET² response, GPR55-N171A-G13 ([5]; Concentration 3e-9 M): -0.0003036
Mean (plotted) BRET² response, GPR55-N171A-G13 ([5]; Concentration 1e-8 M): 0.001966
Mean (plotted) BRET² response, GPR55-N171A-G13 ([5]; Concentration 3e-8 M): -0.0002448
Mean (plotted) BRET² response, GPR55-N171A-G13 ([5]; Concentration 1e-7 M): -0.005366
Mean (plotted) BRET² response, GPR55-N171A-G13 ([5]; Concentration 3e-7 M): -0.01646
Mean (plotted) BRET² response, GPR55-N171A-G13 ([5]; Concentration 1e-6 M): -0.04126
Mean (plotted) BRET² response, GPR55-N171A-G13 ([5]; Concentration 3e-6 M): -0.05866
Mean (plotted) BRET² response, GPR55-N171A-G13 ([5]; Concentration 1e-5 M): -0.07333
Mean (plotted) BRET² response, GPR55-N171A-G13 ([5]; Concentration 3e-5 M): -0.07936
EC50 ([5]; GPR55 N171A, Gα13): 1050 nM
Emax at 30 µM ([5]; GPR55 N171A, Gα13, 30 µM ligand, same normalization, read-out: Efficacy ± SEM (%)): 73 ± 3%
reduction of potency compared to wt GPR55 ([5]; N171A mutant): 24 fold
Compound: Cc1cccc(N2CCN(C(=O)c3cc(S(=O)(=O)N(C)C)ccc3N3CCCC3)CC2)c1C [ML184, 3-[[4-(2,3-dimethylphenyl)-1-piperazinyl]carbonyl]-N,N-dimethyl-4-(1-pyrrolidinyl)benzenesulfonamide]
G protein activation at GPR55-transfected cells (in words) ([1]; wt GPR55, Gα13): induced Gα13 activation in a concentration-dependent manner
